Experimental data published in patent US9717706B2, “Chromone inhibitors of S-nitrosoglutathione reductase” (Nivalis Therapeutics, Inc., priority 2010, dated 2017).

System: not listed separately
Experiment: Mouse pharmacokinetic (PK) study
Format: in vivo
Settings: plasma, male BALB/c mice, 10 mg/kg PO vs 2 mg/kg IV, single dose, based on area under the curve
Description: The mouse is used to determine the pharmacokinetics of GSNOR inhibitors. This species is widely used to assess the bioavailability of compounds by administering both oral (PO) and intravenous (IV) test articles. Efficacy of the GSNOR inhibitors can be compared by assessing plasma exposure in male BALB/c mice either via IV or PO administration at the times of peak activity.
The GSNOR inhibitor Compound 10 was reconstituted in a phosphate buffered saline (PBS)/10% Solutol (HS 15) clear solution resulting in a concentration of 0.2 mg/mL and administered to mice (2 mg/kg) as a single IV dose. Animals were dosed via the lateral tail vein. […] The plasma was transferred into labeled polypropylene tubes and frozen at −70° C. until analyzed by LC/MS/MS.
The GSNOR inhibitor Compound 10 was reconstituted in 40% Propylene Glycol/40% Propylene Carbonate/20% of a 5% Sucrose clear solution resulting in a concentration of 2 mg/mL and administered to mice (10 mg/kg) as a single oral dose via gavage. […] The plasma was transferred into labeled polypropylene tubes and frozen at −70° C. until analyzed by LC/MS/MS.
Plasma samples at each timepoint were analyzed using a LC-MS/MS with a lower limit of quantification (LLOQ) of 1 ng/mL. Plasma was analyzed to determine the amount of the GSNOR inhibitor in each sample and regression curves were generated for each GSNOR inhibitor in the relevant matrixes. […]

| bioavailability [%] | Structure (SMILES) |
| --- | --- |
| > 17 | O=C(O)c1ccc(-c2c(C(F)(F)F)oc3cc(O)ccc3c2=O)cc1 [Example 10, 4-(7-hydroxy-4-oxo-2-(trifluoromethyl)-4H-chromen-3-yl)benzoic acid] |

Target: T1, GSNOR (Homo sapiens, UniProt P11766)
T1 construct: made in house; host or cells: E. coli (arabinose-induced)
Experiment: GSNOR assay (inhibition of GSNOR activity, NADH absorbance at 340 nm)
Format: biochemical
Settings: assay of Example 24; 0.240 mM GSNO, 0.300 mM NADH, pH 7.4, 25° C.; read-out: IC50 (GSNOR inhibitor activity)
Description: Various compounds were tested in vitro for their ability to inhibit GSNOR activity. GSNOR expression and purification is described in Biochemistry 2000, 39, 10720-10729.
GSNOR Fermentation: Pre-cultures were grown from stabs of a GSNOR glycerol stock in 2XYT media containing 100 ug/ml ampicillin after an overnight incubation at 37° C. Cells were then added to fresh 2XYT (4 L) containing ampicillin and grown to an OD (A600) of 0.6-0.9 at 37° C. before induction. GSNOR expression was induced with 0.1% arabinose in an overnight incubation at 20° C.
GSNOR Purification: E. coli cell paste was lysed by nitrogen cavitation and the clarified lysate purified by Ni affinity chromatography on an AKTA FPLC (Amersham Pharmacia). The column was eluted in 20 mM Tris pH 8.0/250 mM NaCl with a 0-500 mM imidazole gradient. Eluted GSNOR fractions containing the Smt-GSNOR fusion were digested overnight with Ulp-1 at 4° C. to remove the affinity tag then re-run on the Ni column under the same conditions. GSNOR was recovered in the flowthrough fraction and for crystallography is further purified by Q-Sepharose and Heparin flowthrough chromatography in 20 mM Tris pH 8.0, 1 mM DTT, 10 uM ZnSO4.
GSNOR Assay: GSNO and Enzyme/NADH Solutions are made up fresh each day. The Solutions are filtered and allowed to warm to room temperature. GSNO Solution: 100 mM NaPO4 (pH 7.4), 0.480 mM GSNO. 396 μL of GSNO Solution is added to a cuvette followed by 8 μL of test compound in DMSO (or DMSO only for full reaction control) and mixed with the pipette tip. Compounds to be tested are made up at a stock concentration of 10 mM in 100% DMSO. 2 fold serial dilutions are done in 100% DMSO. 8 μL of each dilution are added to an assay so that the final concentration of DMSO in the assay is 1%. The concentrations of compounds tested range from 100 to 0.003 μM. Enzyme/NADH Solution: 100 mM NaPO4 (pH 7.4), 0.600 mM NADH, 1.0 μg/mL GSNO Reductase. 396 μL of the Enzyme/NADH Solution is added to the cuvette to start the reaction. The cuvette is placed in the Cary 3E UV/Visible Spectrophotometer and the change in 340 nm absorbance/min at 25° C. is recorded for 3 minutes. The assays are done in triplicate for each compound concentration. IC50's for each compound are calculated using the standard curve analysis in the Enzyme Kinetics Module of SigmaPlot.
Final assay conditions: 100 mM NaPO4, pH 7.4, 0.240 mM GSNO, 0.300 mM NADH, 0.5 μg/mL GSNO Reductase and 1% DMSO. Final volume: 800 μL/cuvette.

T1 sequence (P11766 whole entry): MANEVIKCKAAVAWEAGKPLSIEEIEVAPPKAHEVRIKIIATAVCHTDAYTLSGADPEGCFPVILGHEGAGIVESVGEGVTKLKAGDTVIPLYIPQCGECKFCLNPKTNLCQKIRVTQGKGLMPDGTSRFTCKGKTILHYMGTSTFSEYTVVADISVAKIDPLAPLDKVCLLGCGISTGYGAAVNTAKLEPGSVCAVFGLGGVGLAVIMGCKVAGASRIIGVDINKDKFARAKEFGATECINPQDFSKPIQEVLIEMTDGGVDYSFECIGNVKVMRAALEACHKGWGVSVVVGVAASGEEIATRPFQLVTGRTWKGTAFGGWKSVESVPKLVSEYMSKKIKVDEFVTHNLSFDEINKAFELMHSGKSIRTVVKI

| Structure (SMILES) | IC50 [nM] |
| --- | --- |
| O=C(O)c1ccc(-c2c(C(F)F)oc3cc(O)ccc3c2=O)cc1 [Example 1, 4-(2-(difluoromethyl)-7-hydroxy-4-oxo-4H-chromen-3-yl)benzoic acid] | < 100 |
| COCc1oc2cc(O)ccc2c(=O)c1-c1ccc(C(=O)O)cc1 [Example 2, 4-(7-hydroxy-2-(methoxymethyl)-4-oxo-4H-chromen-3-yl)benzoic acid] | < 500 |
| CC(C)c1oc2cc(O)ccc2c(=O)c1-c1ccc(C(=O)O)cc1 [Example 3, 4-(7-hydroxy-2-isopropyl-4-oxo-4H-chromen-3-yl)benzoic acid] | < 500 |
| Cc1oc2cc(O)ccc2c(=O)c1-c1ccc(C(=O)O)cc1 [Example 5, 4-(7-hydroxy-2-methyl-4-oxo-4H-chromen-3-yl)benzoic acid] | < 500 |
| O=C(O)c1ccc(-c2c(Cc3ccccc3)oc3cc(O)ccc3c2=O)cc1 [Example 6, 4-(2-benzyl-7-hydroxy-4-oxo-4H-chromen-3-yl)benzoic acid] | < 500 |
| O=C(O)c1ccc(-c2c(C(F)(F)F)oc3cc(O)c(F)cc3c2=O)cc1 [Example 13, 4-(6-fluoro-7-hydroxy-4-oxo-2-(trifluoromethyl)-4H-chromen-3-yl)benzoic acid] | < 500 |

Second part, the compound after the results:

| IC50 [nM] | Structure (SMILES) |
| --- | --- |
| < 100 | O=C(O)c1ccc(-c2c(C(F)(F)F)oc3cc(O)ccc3c2=O)cc1 [Example 10, 4-(7-hydroxy-4-oxo-2-(trifluoromethyl)-4H-chromen-3-yl)benzoic acid] |
| < 100 | O=C(O)c1ccc(-c2c(C(F)(F)F)oc3cc(O)ccc3c2=O)cc1F [Example 14, 2-fluoro-4-(7-hydroxy-4-oxo-2-(trifluoromethyl)-4H-chromen-3-yl)benzoic acid] |
| < 100 | O=C(O)c1ccc(-c2c(C(F)(F)F)oc3cc(O)ccc3c2=O)c(Cl)c1 [Example 15, 3-chloro-4-(7-hydroxy-4-oxo-2-(trifluoromethyl)-4H-chromen-3-yl)benzoic acid] |
| < 100 | CC(F)(F)c1oc2cc(O)ccc2c(=O)c1-c1ccc(C(=O)O)cc1 [Example 16, 4-(2-(1,1-difluoroethyl)-7-hydroxy-4-oxo-4H-chromen-3-yl)benzoic acid] |
| < 100 | O=C(O)c1ccc(-c2c(C(F)(F)F)oc3cc(O)ccc3c2=O)cc1Cl [Example 18, 2-chloro-4-(7-hydroxy-4-oxo-2-(trifluoromethyl)-4H-chromen-3-yl)benzoic acid] |
| < 500 | CCC(F)(F)c1oc2cc(O)ccc2c(=O)c1-c1ccc(C(=O)O)cc1 [Example 19, 4-(2-(1,1-difluoropropyl)-7-hydroxy-4-oxo-4H-chromen-3-yl)benzoic acid] |
| < 100 | COc1cc(C(=O)O)ccc1-c1c(C(F)(F)F)oc2cc(O)ccc2c1=O [Example 20, 4-(7-hydroxy-4-oxo-2-(trifluoromethyl)-4H-chromen-3-yl)-3-methoxybenzoic acid] |

Same assay, conditions: method described in Example 24; comparative example; read-out: IC50 (GSNOR inhibitor activity)

| IC50 [nM] | Structure (SMILES) |
| --- | --- |
| 135 | O=C(O)c1ccc(-c2coc3cc(O)ccc3c2=O)cc1 [Example 22, 4-(7-hydroxy-4-oxo-4H-chromen-3-yl)benzoic acid, reference compound] |
